{"source": "ChEMBL document CHEMBL1133999", "about": "“3-Deoxy-3-substituted-D-myo-inositol imidazolyl ether lipid phosphates and carbonate as inhibitors of the phosphatidylinositol 3-kinase pathway and cancer cell growth” (Bioorg Med Chem Lett, 2001)", "key": {"[1]": {"molecular_target": "Serine/threonine-protein kinase AKT (Homo sapiens, UniProt P31751+Q9Y243+P31749)", "assay": "Inhibition of Akt (proto-oncogenic serine/threonine) kinase", "format": "protein assay"}, "[2]": {"tested_on": "MCF7", "assay": "Inhibition of MCF-7 (breast) cancer cell proliferation", "format": "functional, cell-based", "details": "Homo sapiens"}, "[3]": {"molecular_target": "PI3-kinase p110-alpha/p85-alpha (Homo sapiens, UniProt P42336)", "sequence (P27986 whole entry)": "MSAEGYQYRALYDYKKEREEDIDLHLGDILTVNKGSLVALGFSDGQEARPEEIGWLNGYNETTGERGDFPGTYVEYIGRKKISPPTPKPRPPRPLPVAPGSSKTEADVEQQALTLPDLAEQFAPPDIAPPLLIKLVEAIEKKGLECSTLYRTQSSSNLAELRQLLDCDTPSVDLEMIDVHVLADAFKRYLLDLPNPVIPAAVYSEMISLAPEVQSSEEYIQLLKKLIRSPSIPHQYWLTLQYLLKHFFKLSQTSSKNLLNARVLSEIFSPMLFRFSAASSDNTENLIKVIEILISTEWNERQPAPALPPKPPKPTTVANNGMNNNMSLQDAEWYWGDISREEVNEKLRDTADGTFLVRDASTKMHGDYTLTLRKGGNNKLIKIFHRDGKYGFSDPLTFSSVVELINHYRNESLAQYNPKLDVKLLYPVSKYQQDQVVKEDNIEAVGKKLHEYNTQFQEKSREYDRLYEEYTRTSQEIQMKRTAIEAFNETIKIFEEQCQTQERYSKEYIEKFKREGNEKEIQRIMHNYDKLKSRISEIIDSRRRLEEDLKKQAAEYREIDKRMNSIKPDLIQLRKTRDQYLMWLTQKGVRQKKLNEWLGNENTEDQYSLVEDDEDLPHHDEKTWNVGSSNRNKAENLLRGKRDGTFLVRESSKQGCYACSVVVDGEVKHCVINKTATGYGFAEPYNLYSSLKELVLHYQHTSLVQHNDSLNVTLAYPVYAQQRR", "sequence (P42336 whole entry)": "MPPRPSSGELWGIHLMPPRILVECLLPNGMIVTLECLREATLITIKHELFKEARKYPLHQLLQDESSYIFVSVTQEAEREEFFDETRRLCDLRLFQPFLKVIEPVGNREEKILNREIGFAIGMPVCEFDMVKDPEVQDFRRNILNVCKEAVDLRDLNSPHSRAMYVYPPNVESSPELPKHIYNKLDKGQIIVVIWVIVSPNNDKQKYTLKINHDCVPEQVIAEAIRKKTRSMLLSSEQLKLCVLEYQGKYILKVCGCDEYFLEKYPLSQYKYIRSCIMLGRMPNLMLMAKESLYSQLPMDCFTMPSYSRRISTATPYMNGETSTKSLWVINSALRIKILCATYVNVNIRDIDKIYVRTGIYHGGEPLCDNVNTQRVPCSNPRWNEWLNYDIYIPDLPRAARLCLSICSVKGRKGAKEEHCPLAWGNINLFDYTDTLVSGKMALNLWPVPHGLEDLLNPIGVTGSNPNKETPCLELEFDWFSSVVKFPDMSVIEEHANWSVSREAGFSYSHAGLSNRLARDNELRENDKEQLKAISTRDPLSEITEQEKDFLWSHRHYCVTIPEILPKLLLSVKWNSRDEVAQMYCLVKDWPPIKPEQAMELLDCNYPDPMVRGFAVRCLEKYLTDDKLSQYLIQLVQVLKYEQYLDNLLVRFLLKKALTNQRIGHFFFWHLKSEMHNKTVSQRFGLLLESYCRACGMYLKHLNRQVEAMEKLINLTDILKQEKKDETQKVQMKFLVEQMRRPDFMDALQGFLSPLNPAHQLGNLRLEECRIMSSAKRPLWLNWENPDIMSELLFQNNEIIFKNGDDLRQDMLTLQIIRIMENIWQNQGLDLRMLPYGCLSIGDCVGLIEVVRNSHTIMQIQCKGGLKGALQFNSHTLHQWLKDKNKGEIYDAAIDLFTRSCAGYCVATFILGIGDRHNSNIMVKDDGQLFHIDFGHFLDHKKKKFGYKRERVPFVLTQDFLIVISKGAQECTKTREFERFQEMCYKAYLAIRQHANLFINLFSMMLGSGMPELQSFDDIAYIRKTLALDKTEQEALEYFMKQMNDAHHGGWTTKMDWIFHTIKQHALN", "assay": "Inhibition of […]/p85 PI3-kinase (phosphatidylinositol 3-kinase)", "format": "protein-complex assay"}, "[4]": {"tested_on": "HT-29", "assay": "Inhibition of human colon carcinoma (HT-29) cell proliferation", "format": "functional, cell-based"}, "[5]": {"tested_on": "NIH3T3", "assay": "Inhibition of NIH3T3 cell proliferation", "format": "functional, cell-based", "details": "Mus musculus"}, "[6]": {"assay": "Partition coefficient (logP)", "format": "physicochemical", "details": "octanol/water"}}, "data": [{"smiles": "CCCCCCCCCCCCCCCCCCOC[C@H](COP(=O)(O)OC1[C@H](O)C[C@@H](O)[C@H](O)[C@@H]1O)n1ccnc1", "note": "(single isomer, unassigned)", "values": [{"measurement": "IC50", "setting": "[1]", "value": 37.5, "unit": "µM"}, {"measurement": "IC50", "setting": "[2]", "value": 6, "unit": "µM"}, {"measurement": "IC50", "setting": "[3]", "value": 14.5, "unit": "µM"}, {"measurement": "IC50", "setting": "[4]", "value": 15, "unit": "µM"}, {"measurement": "IC50", "setting": "[5]", "value": 6.5, "unit": "µM"}]}, {"smiles": "CCCCCCCCCCCCCCCCCCOC[C@H](COP(=O)(O)OC1[C@@H](O)[C@@H](O)[C@H](O)[C@H](CO)[C@H]1O)n1ccnc1", "note": "(single isomer, unassigned)", "values": [{"measurement": "IC50", "setting": "[1]", "value": 20.5, "unit": "µM"}, {"measurement": "IC50", "setting": "[2]", "value": 2, "unit": "µM"}, {"measurement": "logP", "setting": "[6]", "value": 3.22}, {"measurement": "IC50", "setting": "[3]", "value": 7.9, "unit": "µM"}, {"measurement": "IC50", "setting": "[4]", "value": 6.5, "unit": "µM"}, {"measurement": "IC50", "setting": "[5]", "value": 8.2, "unit": "µM"}]}, {"smiles": "CCCCCCCCCCCCCCCCCCOC[C@H](COP(=O)(O)OC1[C@H](O)C[C@@H](O)[C@H](O)[C@@H]1O)OC", "note": "(single isomer, unassigned)", "values": [{"measurement": "logP", "setting": "[6]", "value": 4.44}, {"measurement": "IC50", "setting": "[3]", "value": 14.8, "unit": "µM"}, {"measurement": "IC50", "setting": "[5]", "value": 4.5, "unit": "µM"}]}, {"smiles": "CCCCCCCCCCCCCCCCCCOC[C@H](COC(=O)OC1[C@@H](O)[C@@H](O)[C@H](O)[C@H](CO)[C@H]1O)OC", "note": "(single isomer, unassigned)", "values": [{"measurement": "IC50", "setting": "[1]", "value": 5, "unit": "µM"}, {"measurement": "IC50", "setting": "[2]", "value": 1.25, "unit": "µM"}, {"measurement": "IC50", "setting": "[3]", "value": 83, "unit": "µM"}, {"measurement": "IC50", "setting": "[4]", "value": 10, "unit": "µM"}, {"measurement": "IC50", "setting": "[5]", "value": 2, "unit": "µM"}]}, {"smiles": "CCCCCCCCCCCCCCCCCCOC[C@H](COC(=O)OC1[C@@H](O)[C@@H](O)[C@H](O)[C@H](CO)[C@@H]1O)n1ccnc1", "note": "(single isomer, unassigned)", "values": [{"measurement": "IC50", "setting": "[1]", "value": 15, "unit": "µM"}, {"measurement": "IC50", "setting": "[2]", "value": 20, "unit": "µM"}, {"measurement": "IC50", "setting": "[3]", "value": 49.5, "unit": "µM"}, {"measurement": "IC50", "setting": "[4]", "value": 15, "unit": "µM"}, {"measurement": "IC50", "setting": "[5]", "value": 11.5, "unit": "µM"}]}, {"smiles": "CCCCCCCCCCCCCCCCCCOC[C@H](COP(=O)(O)OC1[C@@H](O)[C@@H](O)[C@H](O)[C@H](CO)[C@H]1O)OC", "note": "(single isomer, unassigned)", "values": [{"measurement": "IC50", "setting": "[1]", "value": 7.8, "unit": "µM"}, {"measurement": "IC50", "setting": "[2]", "value": 5, "unit": "µM"}, {"measurement": "IC50", "setting": "[3]", "value": 31, "unit": "µM"}, {"measurement": "IC50", "setting": "[4]", "value": 4.5, "unit": "µM"}, {"measurement": "IC50", "setting": "[5]", "value": 2, "unit": "µM"}]}]}
